The record followed here is patent US9951068B2 (Proximagen Limited, priority 2013, dated 2018).

By IC50 is commonly meant the concentration at which inhibition is half-maximal.

In the experiment the target is purified recombinantly expressed human SSAO (Homo sapiens (Human), UniProt Q16853). The experiment is described as follows: SSAO enzyme inhibition assay (HRP-coupled hydrogen peroxide detection or 14C-benzaldehyde detection, benzylamine substrate). It is filed as biochemical. To be noted: SSAO inhibitory activity, human recombinant SSAO, RT. How it is done:
All primary assays were performed at RT. with purified recombinantly expressed human SSAO. Enzyme was prepared essentially as described in Öhman et al. (Protein Expression and Purification 46 (2006) 321-331). In addition, secondary- and selectivity assays were performed using SSAO prepared from various tissues or purified rat recombinant SSAO. The enzyme activity was assayed with benzylamine as substrate by measuring either benzaldehyde production, using ^14C-labeled substrate, or by utilizing the production of hydrogen peroxide in a horseradish peroxidase (HRP) coupled reaction. Briefly, test compounds were dissolved in dimethyl sulfoxide (DMSO) to a concentration of 10 mM. Dose-response measurements were assayed by either creating 1:10 serial dilutions in DMSO to produce a 7 point curve or by making 1:3 serial dilutions in DMSO to produce 11 point curves.
In a horseradish peroxidase (HRP) coupled reaction, hydrogen peroxide oxidation of 10-acetyl-3,7-dihydroxyphenoxazine produced resorufin, which is a highly fluorescent compound (Zhout and Panchuk-Voloshina. Analytical Biochemistry 253 (1997) 169-174; Amplex® Red Hydrogen Peroxide/peroxidase Assay kit, Invitrogen A22188). Enzyme and compounds in 50 mM sodium phosphate, pH 7.4 were set to pre-incubate in flat-bottomed microtiter plates for approximately 15 min before initiating the reaction by addition of a mixture of HRP, benzylamine and Amplex reagent. Benzylamine concentration was fixed at a concentration corresponding to the Michaelis constant, determined using standard procedures. Fluorescence intensity was then measured at several time points during 1-2 h, exciting at 544 nm and reading the emission at 590 nm. For the human SSAO assay final concentrations of the reagents in the assay wells were: SSAO enzyme 1 ug/ml, benzylamine 100 uM, Amplex reagent 20 uM, HRP 0.1 U/mL and varying concentrations of test compound. The inhibition was measured as % decrease of the signal compared to a control without inhibitor (only diluted DMSO). The background signal from a sample containing no SSAO enzyme was subtracted from all data points. Data was fitted to a four parameter logistic model and IC50 values were calculated using the GraphPad Prism 4 or XLfit 4 programs.
SSAO activity was assayed using 14C-labeled benzylamine and analysed by measuring radioactive benzaldehyde. In a white 96-well optiplate (Packard), 20 uL of diluted test compound was pre-incubated at room temperature with 20 uL SSAO enzyme for approximately 15 min with continuous agitation. All dilutions were made with PBS. The reaction was initiated by adding 20 uL of the benzylamine substrate solution containing [7-14C] Benzylamine hydrochloride (CFA589, GE Healthcare). The plate was incubated for 1 h as above after which the reaction was stopped by acidification (10 uL 1M aq HCl). Then 90 uL Micro Scint-E solution (Perkin-Elmer) was added to each well and the plate was continuously mixed for 15 min. Phase separation occurred instantly and activity was read in a Topcount scintillation counter (Perkin-Elmer). In the final reaction well, the human recombinant SSAO concentration was 10 ug/ml. In order to optimize sensitivity, the substrate concentration was decreased as compared to the HRP coupled assay in order to get a higher fraction of radioactive product. In the human SSAO assay, benzylamine concentration was 40 uM (0.2 uCi/mL). Data was analysed as above.

Where a name gives a salt, the structure may show the parent alone.

purified recombinantly expressed human SSAO, sequence (Q16853 29-763): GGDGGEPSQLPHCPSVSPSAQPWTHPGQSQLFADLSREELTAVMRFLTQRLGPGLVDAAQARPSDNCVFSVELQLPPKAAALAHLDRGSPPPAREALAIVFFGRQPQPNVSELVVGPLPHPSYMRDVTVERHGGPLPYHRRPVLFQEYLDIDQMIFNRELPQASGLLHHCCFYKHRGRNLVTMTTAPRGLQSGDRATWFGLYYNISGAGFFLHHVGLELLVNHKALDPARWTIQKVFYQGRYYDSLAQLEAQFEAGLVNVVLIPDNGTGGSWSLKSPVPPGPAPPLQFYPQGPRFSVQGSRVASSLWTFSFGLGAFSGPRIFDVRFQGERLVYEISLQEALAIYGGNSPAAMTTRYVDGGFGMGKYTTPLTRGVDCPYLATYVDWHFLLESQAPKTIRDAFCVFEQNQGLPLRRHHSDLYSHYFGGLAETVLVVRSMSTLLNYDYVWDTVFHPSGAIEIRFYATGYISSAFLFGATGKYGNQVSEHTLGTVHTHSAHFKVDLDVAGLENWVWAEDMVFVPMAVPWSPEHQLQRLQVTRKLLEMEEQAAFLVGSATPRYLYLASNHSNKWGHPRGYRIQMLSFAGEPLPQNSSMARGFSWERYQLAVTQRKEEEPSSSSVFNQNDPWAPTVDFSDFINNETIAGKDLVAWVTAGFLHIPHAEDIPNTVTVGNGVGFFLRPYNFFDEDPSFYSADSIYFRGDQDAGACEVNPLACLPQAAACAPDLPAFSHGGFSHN

`NC(=O)N1CCN(c2ccc(-c3nc4ccncc4n3-c3ccc(Cl)cc3)cn2)CC1` [Example 90, 4-{5-[3-(4-Chlorophenyl)-3H-imidazo[4,5-c]pyridin-2-yl]pyridin-2-yl}piperazine-1-carboxamide dihydrochloride]: the IC50 was under 50 nM. As for `Cc1ccc(-n2c(-c3cnc(N4C[C@@H](C)O[C@@H](C)C4)nc3)nc3ccncc32)cn1` [Example 118, (2R,6S)-2,6-Dimethyl-4-{5-[3-(6-methylpyridin-3-yl)-3H-imidazo[4,5-c]pyridin-2-yl]pyrimidin-2-yl}morpholine], the figure is under 50 nM; as for `Clc1ccc(-n2c(-c3cnc(N4CCOCC4)nc3)cc3ccncc32)cc1` [Example 127, 4-{5-[1-(4-Chlorophenyl)-1H-pyrrolo[2,3-c]pyridin-2-yl]pyrimidin-2-yl}morpholine], under 50 nM; as for `Cn1ccc(-c2cc3ccncc3n2-c2ccc(Cl)cc2)cc1=O` [Example 143, 4-[1-(4-Chlorophenyl)-1H-pyrrolo[2,3-c]pyridin-2-yl]-1-methyl-1,2-dihydropyridin-2-one], under 50 nM. On to `Clc1ccc(-n2c(-c3ccc(CN4CCOCC4)cc3)nc3ccncc32)cc1` [Example 49, 4-({4-[3-(4-Chlorophenyl)-3H-imidazo[4,5-c]pyridin-2-yl]phenyl}methyl)morpholine], for which the IC50 was under 50 nM. As for `Fc1ccc(-n2c(-c3ccc(N4CCOCC4)nc3)nc3ccncc32)c(F)c1` [Example 41, 4-{5-[3-(2,4-Difluorophenyl)-3H-imidazo[4,5-c]pyridin-2-yl]pyridin-2-yl}morpholine], the figure is under 50 nM. As to `O=c1cc(-c2nc3ccncc3n2-c2ccc(F)cc2)ccn1C1CC1` [Example 115, 1-Cyclopropyl-4-[3-(4-fluorophenyl)-3H-imidazo[4,5-c]pyridin-2-yl]-1,2-dihydropyridin-2-one], the IC50 is under 50 nM.

On to `Cc1ccc(-n2c(-c3ccc(N4C[C@@H](C)O[C@@H](C)C4)nc3)nc3ccncc32)nc1` [Example 104, (2R,6S)-2,6-Dimethyl-4-{5-[3-(5-methylpyridin-2-yl)-3H-imidazo[4,5-c]pyridin-2-yl]pyridin-2-yl}morpholine], for which the IC50 is under 50 nM. As for `Cc1ccc(-n2c(-c3cnc(N4CCOCC4)cc3C)nc3ccncc32)cn1` [Example 107, 4-{4-Methyl-5-[3-(6-methylpyridin-3-yl)-3H-imidazo[4,5-c]pyridin-2-yl]pyridin-2-yl}morpholine], the IC50 is under 50 nM. As for `Cc1cc(-n2cccn2)ncc1-c1nc2ccncc2n1-c1ccc(F)cc1` [Example 102, 5-[3-(4-Fluorophenyl)-3H-imidazo[4,5-c]pyridin-2-yl]-4-methyl-2-(1H-pyrazol-1-yl)pyridine], the figure is 50 to 200 nM; as for `Fc1ccc(-n2c(-c3ccc(OC4CCOCC4)nc3)nc3ccncc32)cc1` [Example 113, 5-[3-(4-Fluorophenyl)-3H-imidazo[4,5-c]pyridin-2-yl]-2-(oxan-4-yloxy)pyridine], under 50 nM. As to `Clc1ccc(-n2c(-c3ccc(CN4CCOCC4)nc3)cc3ccncc32)cc1` [Example 140, 4-({5-[1-(4-Chlorophenyl)-1H-pyrrolo[2,3-c]pyridin-2-yl]pyridin-2-yl}methyl)morpholine], the IC50 is under 50 nM. With `Fc1ccc(-n2c(-c3cnc(NCC4CC4)nc3)nc3ccncc32)cc1` [Example 9, N-(Cyclopropylmethyl)-5-[3-(4-fluorophenyl)-3H-imidazo[4,5-c]pyridin-2-yl]pyrimidin-2-amine], the IC50 is under 50 nM. For the compound `Cn1ccc(-c2nc3ccncc3n2-c2ccc(Cl)cc2)cc1=O` [Example 32, 4-[3-(4-Chlorophenyl)-3H-imidazo[4,5-c]pyridin-2-yl]-1-methyl-1,2-dihydropyridin-2-one], the IC50 is under 50 nM. `Oc1ccc(-n2c(-c3ccc(N4CCOCC4)nc3)nc3ccncc32)cc1` [Example 65, 4-{2-[6-(Morpholin-4-yl)pyridin-3-yl]-3H-imidazo[4,5-c]pyridin-3-yl}phenol]: the IC50 was under 50 nM.
